# Source: US20100056565A1, “Heterocyclic Derivatives as M3 Muscarinic Receptors” (priority 2007, published 2010)
# Where a name gives a salt, the structure may show the parent alone.
# Molecular target: T1, Recombinant human M3 receptor (Homo sapiens, UniProt P20309)
# T1 construct: expressed in transfected cells; host or cells: CHO-K1 cells (membranes)
# Assay: biochemical
# Type: binding
# Conditions: SPA format; read-out: M3 Ki (SPA format)
# Protocol: Recombinant human M3 receptor was expressed in CHO-K1 cells. Cell membranes were prepared and binding of [3H]-N-methyl scopolamine ([3H]-NMS) and compounds was assessed by a scintillation proximity assay (SPA). The incubation time was 16 hours at room temperature in the presence of 1% (v/v) DMSO. The assay was performed in white 96 well clear-bottomed NBS plates (Corning). Prior to the assay, the CHO cell membranes containing M3 receptor were coated onto SPA WGA (Wheat germ agglutinin) beads (GE Healthcare). Non specific binding was determined in the presence of 1 μM Atropine.
# Radioactivity was measured on a Microbeta scintillation counter (PerkinElmer) using a 3H protocol with a 2 minutes per well read time. […] Concentration dependent inhibition of [3H]-NMS binding by compounds was expressed as pIC50.
# T1 sequence (P20309 whole entry): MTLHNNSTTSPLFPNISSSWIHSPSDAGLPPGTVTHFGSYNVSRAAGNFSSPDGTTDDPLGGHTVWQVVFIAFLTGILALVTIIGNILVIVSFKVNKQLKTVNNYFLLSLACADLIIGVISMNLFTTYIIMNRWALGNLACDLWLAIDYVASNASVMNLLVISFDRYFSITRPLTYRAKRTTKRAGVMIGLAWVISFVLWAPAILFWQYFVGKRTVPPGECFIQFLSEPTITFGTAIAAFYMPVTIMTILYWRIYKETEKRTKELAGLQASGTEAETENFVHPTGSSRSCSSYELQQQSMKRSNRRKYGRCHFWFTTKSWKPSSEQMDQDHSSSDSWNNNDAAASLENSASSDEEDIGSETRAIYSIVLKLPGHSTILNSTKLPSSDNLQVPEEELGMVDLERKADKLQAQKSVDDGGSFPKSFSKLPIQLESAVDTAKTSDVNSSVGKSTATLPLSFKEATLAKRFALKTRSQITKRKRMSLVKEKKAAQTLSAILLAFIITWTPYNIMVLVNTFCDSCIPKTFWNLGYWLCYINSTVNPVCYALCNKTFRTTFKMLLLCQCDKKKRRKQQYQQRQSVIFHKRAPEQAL
row,SMILES,Ki
1,"OC(c1ccccc1)(c1noc(C[N+]23CCC(CC2)[C@@H](OCc2ccccc2)C3)n1)C1CCCCC1 (single isomer, unassigned) [Example 30, formate]",< 5 nM
2,"OC(c1ccccc1)(c1cc(C[N+]23CCC(CC2)[C@@H](OCc2ccccc2)C3)on1)C1CCCCC1 (single isomer, unassigned) [Example 31, formate]",< 5 nM
3,"OC(c1ccccc1)(c1ncc(C[N+]23CCC(CC2)[C@@H](OCc2ccccc2)C3)o1)C1CCCCCCC1 (single isomer, unassigned) [Example 48, formate]",< 5 nM
4,"OC(c1ccccc1)(c1ncc(C[N+]23CCC(CC2)[C@@H](OCc2ccccc2)C3)o1)C1CCC1 (single isomer, unassigned) [Example 50, formate]",< 5 nM
5,"OC(c1ccccc1)(c1cc(C[N+]23CCC(CC2)[C@@H](OCc2ccc(F)cc2)C3)on1)C1CCCCC1 (single isomer, unassigned) [Example 54]",< 5 nM
6,"O[C@](c1ccccc1)(c1ncc(C[N+]23CCC(CC2)C(COc2cccc(F)c2)C3)o1)C1CCCCC1 (single isomer, unassigned) [Example 81]",< 5 nM
7,"O[C@](c1ccccc1)(c1ncc(C[N+]23CCC(CC2)C(COc2ccc(F)cc2)C3)o1)C1CCCCC1 (single isomer, unassigned) [Example 82]",< 5 nM
8,"OC(c1ccccc1)(c1ccccc1)c1ncc(C[N+]23CCC(CC2)C(COc2cccc(F)c2)C3)o1 (single isomer, unassigned) [Example 83, 3-(3-Fluoro-phenoxymethyl)-1-[2-(hydroxy-diphenyl-methyl)-oxazol-5-ylmethyl]-1-azonia-bicyclo[2.2.2]octane; bromide]",5 to 20 nM
9,"OC(c1ccccc1)(c1ccccc1)c1ncc(C[N+]23CCC(CC2)C(COc2cccc(F)c2)C3)o1 (single isomer, unassigned) [Example 84, 3-(3-Fluoro-phenoxymethyl)-1-[2-(hydroxy-diphenyl-methyl)-oxazol-5-ylmethyl]-1-azonia-bicyclo[2.2.2]octane; bromide]",< 5 nM
10,"O[C@](c1ccccc1)(c1ncc(C[N+]23CCC(CC2)C(COc2cccc(F)c2)C3)o1)C1CCCCC1 (single isomer, unassigned) [Example 85]",< 5 nM
11,"OC(c1ccccc1)(c1ccccc1)c1ncc(C[N+]23CCC(CC2)C(COc2ccc(F)cc2)C3)o1 (single isomer, unassigned) [Example 86, 3-(4-Fluoro-phenoxymethyl)-1-[2-(hydroxy-diphenyl-methyl)-oxazol-5-ylmethyl]-1-azonia-bicyclo[2.2.2]octane; bromide]",5 to 20 nM
12,"O[C@](c1ccccc1)(c1ncc(C[N+]23CCC(CC2)C(COc2ccc(F)cc2)C3)o1)C1CCCCC1 (single isomer, unassigned) [Example 87]",< 5 nM
13,"C=CCOCC1C[N+]2(Cc3cnc([C@](O)(c4ccccc4)C4CCCCC4)o3)CCC1CC2 (single isomer, unassigned) [Example 89, formate]",< 5 nM
14,"C=CCOCC1C[N+]2(Cc3cnc([C@](O)(c4ccccc4)C4CCCCC4)o3)CCC1CC2 (single isomer, unassigned) [Example 90, formate]",5 to 20 nM
15,"OC(c1ccccc1)(c1cc(C[N+]23CCC(CC2)C(COc2ccccc2)C3)on1)C1CCCCC1 (single isomer, unassigned) [Example 91]",< 5 nM
16,"OC(c1ccccc1)(c1cc(C[N+]23CCC(CC2)[C@@H](Oc2cccc(F)c2)C3)on1)C1CCCCC1 (single isomer, unassigned) [Example 101]",< 5 nM
17,"OC(c1ccccc1)(c1ncc(C[N+]23CCC(CC2)C(CSc2ccccc2)C3)o1)C1CCC1 (single isomer, unassigned) [Example 122]",< 5 nM
18,"OC(c1ccccc1)(c1cc(C[N+]23CCC(CC2)C(CSc2ccccc2)C3)on1)C1CCCCC1 (single isomer, unassigned) [Example 123]",< 5 nM
19,"OC(c1ccccc1)(c1cc(C[N+]23CCC(CC2)[C@@H](CSc2ccccc2)C3)on1)C1CCCCC1 (single isomer, unassigned) [Example 124]",< 5 nM
